Data: PMC9794608 (Frontiers in Veterinary Science, 2022)

Key:
[1] = Pilot single oral dose plasma trametinib concentrations (initial formulation); type: in vivo; details: fasted dogs
Experimental: (§1) Each 50 μL aliquot of known concentration standards, quality control sample, or study sample was mixed with 200 μL of working internal standard solution (10 ng/mL in acetonitrile). The samples were vortexed and centrifuged. A 150 μL aliquot of the resulting supernatant was transferred to a clean 96-well plate, evaporated, and reconstituted with 100 μL of water/acetonitrile (40/60, v/v). An aliquot was injected onto an LC-MS/MS XBridge BEH C18 liquid chromatography system (Waters Associates, Framingham, MA) having 50 x 2.1 mm (2.5 μm particle size) column with an isocratic flow consisting of water/formic acid (100/0.1, v/v) and acetonitrile/formic acid (100/0.1, v/v) at a flow rate of 0.3000 mL/min for analysis. The analyte and internal standard were detected using an API 6500+ triple quadrupole LC-MS/MS system (AB Sciex, LLC, Framingham, MA) equipped with an ESI (TurboIonSpray®) ionization source operated in the positive ion mode.
These analytical findings, even under animal fasting conditions, were independently verified at the NCI Clinical Pharmacology Program. […] Consequently, trametinib was reformulated for this study by […] with equimolar dimethyl sulfoxide (DMSO) (Wedgewood Pharmacy, Swedesboro, NJ), consistent with the human formulation ([…]®, Novartis), and used for all subsequent evaluations. […]

[2] = cited from earlier work
[3] = design: method as in PMID 32943547; details: combination with sapanisertib, p <0.001; cited from earlier work
laboratory beagle dogs = experiment: Repeat dose tolerability: clinical observations, hematology, serum chemistry, coagulation, urinalysis; type: in vivo
Experimental: (§2) Laboratory Beagle dogs (Charles River Labs, Mattawan, MI) served as surrogates in testing compounds proposed for application in canine clinical cancer care. The animals were at least six months old and weighed 6.4–8.8 kg at the initiation of study. They had routine veterinary care and had not been used in any previous studies. The study was conducted in AAALAC-accredited animal facilities [Charles River Laboratories, Inc., Mattawan, MI; NIH Office of Laboratory Animal Welfare Assurance approval (https://olaw.nih.gov/assured/app/index.html)], under review, monitoring, and approval of the facility's Institutional Animal Care and Use Committee according to U.S. Public Health Service national guidelines and regulations for the care and use of laboratory animals. The study was not designed to incorporate Good Laboratory Practices (GLP) regulatory criteria. Animals on study were monitored daily or more frequently and body weights were recorded, while periodic specimens were obtained for laboratory analyses. Clinical pathology analyses were included for hematology, serum chemistry, coagulation, urinalysis, and chemical bioanalysis was accomplished for pharmacokinetics (PK) (Table 1, repeat dose study) (Charles River Laboratories, Mattawan, MI).
Six male and six female beagle dogs were enrolled in a parallel, three-arm, fixed, repeat oral-dose study. […] All dogs were dosed on study day 1 to obtain single dose PK samples, and then dosed serially days 4–20. Dogs were fasted overnight prior to dosing and fed ad libitum 2 h (hrs) following dose administration.
On days 10 and 15, a 2-h post-dose sample was collected. […] Treatment schedule and clinical pathology specimen sampling intervals are outlined in Table 1. […]
Sampling for hematology, serum chemistry, coagulation and urinalysis was conducted to facilitate monitoring treatment effects over various time points, and values obtained were compared to pre-treatment measurements for each subject (Table 1).

[4] = Plasma pharmacokinetics after single and repeat oral dose, LC-MS/MS, non-compartmental analysis; type: in vivo, Beagle dogs; details: for Tmax: TMAX (trametinib in plasma), median (range)
Experimental: as §2
Six male and six female beagle dogs were enrolled in a parallel, three-arm, fixed, repeat oral-dose study. […] In Group 2, two male (23001, 23002) and two female (23501, 23502) dogs were given sapanisertib alone (0.1 mg/kg) every other day (p.o., QOD). […] All dogs were dosed on study day 1 to obtain single dose PK samples, and then dosed serially days 4–20. Dogs were fasted overnight prior to dosing and fed ad libitum 2 h (hrs) following dose administration.
Plasma samples for PK were collected at pre-dose (-7 days), then beginning day 1 following the initial dose of each study group at 1, 2, 4, 8, 24, 48, and 72 h. On day 6, plasma samples were collected pre-dose, then 1, 2, 4, 8, and 24 h post-dose. On days 10 and 15, a 2-h post-dose sample was collected. On day 20, plasma samples were drawn at pre-dose and 1, 2, 4, 8, 24, 48, and 72 h post-dose. Treatment schedule and clinical pathology specimen sampling intervals are outlined in Table 1.
as §1
A non-compartmental approach to PK analysis was employed using Phoenix WinNonlin v8.3 (Certara Corp, Cary, NC) that was validated per FDA 21CFR Part 11 regulations. The maximum plasma concentration (CMAX) and the time of maximum plasma concentration (TMAX) were recorded as observed values. […] AUCINF (the AUC from time zero to infinity) was calculated by extrapolation by dividing CLAST (the last measurable drug concentration) by the rate constant of the terminal phase, λZ. This constant was determined from the slope of the terminal phase of the concentration-time curve using uniformly-weighted least-squares as the estimation procedure and acceptance criteria of (i) adjusted r^2 > 0.8, (ii) includes > 3 time points in the terminal phase occurring after the TMAX. […]

cytochrome P450 CYP3A4 = details: cited from earlier work
[5] = ref MEKINIST Prescribing Information

Compound	Plasma trametinib concentration after single oral dose ([1]; 0.06 or 0.03 mg/kg, inconsistent, frequently below assay detection limit, for each dose one of two dogs below detection) [ng/mL]	Time to detection of trametinib in plasma post dose ([1]; single oral dose 0.06 or 0.03 mg/kg) [h]	Trametinib accumulation upon repeat daily dosing in humans [2]	Clearance of trametinib in humans [2, 5] [L/h/kg]	Distribution volume of trametinib in humans [2, 5] [L/kg]	Trametinib AUC in mice during combination treatment [3]	Dogs with minimal to marked increases in urine protein concentration (laboratory beagle dogs; Day 25, greater than pre-study values, 4 dogs per group)	Urine protein concentration, highest value (up to) (laboratory beagle dogs; Day 25, semi-quantitatively by urine dipstick)	Globulin concentration, times pre-study (up to) (laboratory beagle dogs; Days 7, 20, and/or 25)	Serum phosphorus concentrations, times pre-study (as low as) (laboratory beagle dogs; Days 7 and 20, both sexes in all groups) [x]	Individual animal fibrinogen concentration, times pretreatment (up to) (laboratory beagle dogs; various time points, most pronounced in Group 3)	CMAX or AUC, male versus female dogs ([4]; Mann-Whitney, p > 0.05)	Cmax ([4]; both, beagle, dog, plasma, po, […], CMAX (trametinib in plasma), First dose (Day 1), trametinib […] p.o., alone or with sapanisertib 0.1 mg/kg (see label), arithmetic mean (%CV), n = 4) [ng/mL]	half-life ([4]; both, beagle, dog, plasma, po, […], T1/2 (trametinib in plasma), Steady-state (Day 20), trametinib […] p.o. q.d., mean (%CV), one subject of the trametinib-alone group excluded) [days]	Tmax ([4]; both, beagle, dog, plasma, po, […], First dose (Day 1), trametinib […] p.o., n = 4) [h]	Tmax ([4]; both, beagle, dog, plasma, po, […], Steady-state (Day 20), trametinib […] p.o. q.d., n = 4) [h]	Induction of cytochrome P450 CYP3A4 (cytochrome P450 CYP3A4)
CC(=O)Nc1cccc(-n2c(=O)n(C3CC3)c(=O)c3c(Nc4ccc(I)cc4F)n(C)c(=O)c(C)c32)c1 [trametinib, as initially formulated, trametinib]	< 0.1	≥ 24															
CC(=O)Nc1cccc(-n2c(=O)n(C3CC3)c(=O)c3c(Nc4ccc(I)cc4F)n(C)c(=O)c(C)c32)c1 [Trametinib, trametinib dimethyl sulfoxide]			up to six-fold	0.07	3.1	significantly increased	one male dog	≥ 1,000 mg/dL	up to 1.45 x	≥ 0.74	up to 2.61 x	absence of significant differences	0.64	2.45	1.5	2	known inducer
